Source: patent publication US20110105543A1, “NOVEL TRIARYL DERIVATIVES USEFUL AS MODULATORS OF NICOTINIC ACETYLCHOLINE RECEPTORS” (NeuroSearch A/S, priority 2008, published 2011)

Columns and labels:
[1] = target: T1, nAChR α7 receptors (Homo sapiens, UniProt P36544); test: Positive modulation of acetylcholine-induced currents at wild-type nAChR α7 receptors expressed in Xenopus laevis oocytes (two-electrode voltage clamp); type: cell-based; conditions: for effect on acetylcholine-induced current amplitude: compound 0.01-31.6 μM applied 30 s before and during 100 μM acetylcholine; for maximal modulation of the acetylcholine response (Imax) / EC50: nAChR α7 in Xenopus oocytes, 100 μM acetylcholine; for maximal modulation of the acetylcholine response (Imax): (test-control)/control*100%; for EC50: clamped at -60 mV, compound 0.01-31.6 μM, read-out: calculated EC50 value for positive modulation of 100 μM acetylcholine responses
T1 construct: expressed in transfected cells; host or cells: Xenopus laevis oocytes
T1 sequence (P36544 23-502): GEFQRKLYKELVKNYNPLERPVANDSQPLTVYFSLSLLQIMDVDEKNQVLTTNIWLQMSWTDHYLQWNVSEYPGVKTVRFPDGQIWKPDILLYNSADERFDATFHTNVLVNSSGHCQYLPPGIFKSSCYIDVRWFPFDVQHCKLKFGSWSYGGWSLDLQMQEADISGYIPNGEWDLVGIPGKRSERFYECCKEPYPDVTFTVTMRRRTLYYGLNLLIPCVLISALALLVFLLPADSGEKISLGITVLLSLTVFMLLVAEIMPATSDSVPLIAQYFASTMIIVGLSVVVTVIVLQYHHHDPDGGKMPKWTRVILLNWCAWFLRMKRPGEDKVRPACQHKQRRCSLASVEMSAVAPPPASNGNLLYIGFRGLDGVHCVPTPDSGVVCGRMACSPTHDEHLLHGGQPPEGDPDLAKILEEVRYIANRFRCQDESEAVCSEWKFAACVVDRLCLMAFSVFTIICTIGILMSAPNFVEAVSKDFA
Protocol: In this example the positive modulation of wild-type nAChR α7 receptors by Compound 2 (i.e. 4-[5-Amino-6-(2,4-dichloro-phenyl)-pyrimidin-4-yl]-phenol; FIGS. 1A and 1B) and by Compound 6 (i.e. 2′-Amino-5′,2″-difluoro-4″-trifluoromethyl-[1,1′;3′,1″]terphenyl-4-ol; FIGS. 2A and 2B) was determined using nAChR α7 receptors heterologously expressed in Xenopus laevis oocytes.
The electrical current through the nAChR α7 channel was measured using conventional two-electrode voltage clamp and nAChR α7 currents were activated by applying pulses of agonist-containing solution onto the nAChR α7 expressing oocyte.
In brief, the oocytes were placed in a recording chambers and continuously superfused with an Oocyte Ringer (OR) solution containing 90 mM NaCl, 2.5 mM KCl, 2.5 mM CaCl2, 1 mM MgCl2 and 5 mM HEPES (pH adjusted to 7.4). The oocytes were clamped at −60 mV and currents were induced by applying 20 s pulses of 100 μM acetylcholine dissolved in OR. The intervals between the acetylcholine applications were 5 minutes, during which the oocytes were washed with OR. The first three applications were control applications to insure a constant response level of 100 μM acetylcholine.
The positive modulation in the presence of Compound 2 or Compound 6 was calculated as (test-control)/control*100% and the concentration response curve for this positive modulation was fitted to the sigmoidal logistic equation: I=Imax/(1+(EC50/[compound])^n), where Imax represents the maximal modulation of the control response, EC50 is the concentration causing a half maximal response, and n is the slope coefficient.

| Compound | melting point [°C] | other results |
| --- | --- | --- |
| COc1ccc(-c2ncnc(-c3ccc(C(F)(F)F)cc3F)c2N)c(OC)c1 [Compound 7, 4-(2,4-Dimethoxy-phenyl)-6-(2-fluoro-4-trifluoromethyl-phenyl)-pyrimidin-5-ylamine] | 191.5 to 192.8 | – |
| COc1ccc(-c2cc(F)cc(-c3ccc(C(F)(F)F)cc3F)c2N)cc1 [Compound 5, 5′,2″-Difluoro-4-methoxy-4″-trifluoromethyl-[1,1′;3′,1″]terphenyl-2′-ylamine] | 85.2 to 86.3 | – |
| COc1ccc(-c2nc(N)nc(-c3ccc(C(F)(F)F)cc3F)c2N)cc1 [Compound 17, 4-(2-Fluoro-4-trifluoromethyl-phenyl)-6-(4-methoxy-phenyl)-pyrimidine-2,5-diamine] | 125.8 to 127.1 | – |
| COc1ccc(-c2ncnc(-c3ccc(C(F)(F)F)cc3F)c2N)c(O)c1 [Compound 9, 2-[5-Amino-6-(2-fluoro-4-trifluoromethyl-phenyl)-pyrimidin-4-yl]-5-methoxy-phenol] | 150 to 151.5 | – |
| Nc1c(-c2ccc(S(N)(=O)=O)cc2)cc(F)cc1-c1ccc(C(F)(F)F)cc1F [Compound 25, 2′-Amino-5′,2″-difluoro-4″-trifluoromethyl-[1,1′;3′,1″]terphenyl-4-sulfonic acid amide] | 189.4 to 191.2 | – |
| Nc1c(-c2ccc(O)cc2)cnnc1-c1ccc(C(F)(F)F)cc1F [Compound 20, 4-[5-Amino-6-(2-fluoro-4-trifluoromethyl-phenyl)-pyridazin-4-yl]-phenol] | 251 to 252.2 | – |
| COc1ccc(-c2cncc(-c3ccc(C(F)(F)F)cc3F)c2N)cc1 [Compound 21, 3-(2-Fluoro-4-trifluoromethyl-phenyl)-5-(4-methoxy-phenyl)-pyridin-4-ylamine] | 169.5 to 170.3 | – |
| COc1ccc(-c2nc(C)nc(-c3ccc(C(F)(F)F)cc3F)c2N)cc1 [Compound 15, 4-(2-Fluoro-4-trifluoromethyl-phenyl)-6-(4-methoxy-phenyl)-2-methyl-pyrimidin-5-ylamine] | 129.2 to 130.6 | – |
| Cc1nc(-c2ccc3c(c2)OCO3)c(N)c(-c2ccc(C(F)(F)F)cc2F)n1 [Compound 14, 4-Benzo[1,3]-dioxol-5-yl-6-(2-fluoro-4-trifluoromethyl-phenyl)-2-methyl-pyrimidin-5-ylamine] | 162.5 to 163.3 | – |
| COc1ccc(-c2nc(C)nc(-c3ccc(C(F)(F)F)cc3F)c2[N+](=O)[O-])cc1 [Compound 13, 4-(2-Fluoro-4-trifluoromethyl-phenyl)-6-(4-methoxy-phenyl)-2-methyl-5-nitro-pyrimidine] | 100.8 to 101.8 | – |
| Nc1c(-c2ccc3[nH]ccc3c2)ncnc1-c1ccc(C(F)(F)F)cc1F [Compound 10, 4-(2-Fluoro-4-trifluoromethyl-phenyl)-6-(1H-indol-5-yl)-pyrimidin-5-ylamine] | 216.1 to 217.8 | – |
| Nc1c(-c2ccc(O)cc2)cc(F)cc1-c1ccc(C(F)(F)F)cc1F [Compound 6, 2′-Amino-5′,2″-difluoro-4″-trifluoromethyl-[1,1′;3′,1″]terphenyl-4-ol] | 97.8 to 98.9 | effect on acetylcholine-induced current amplitude [1]: robust increase; maximal modulation of the acetylcholine response (Imax) [1]: 361%; EC50 [1]: 1400 nM |
| COc1ccc(-c2nc(C)nc(-c3ccc(C(F)(F)F)cc3F)c2N)cc1Cl [Compound 12, 4-(3-Chloro-4-methoxy-phenyl)-6-(2-fluoro-4-trifluoromethyl-phenyl)-2-methyl-pyrimidin-5-ylamine] | 104.5 to 105.2 | – |

Second part, led by results:

| melting point [°C] | Compound | other results |
| --- | --- | --- |
| 133.6 to 134.8 | Nc1c(-c2ccc(O)cc2)cncc1-c1ccc(C(F)(F)F)cc1F [Compound 22, 4-[4-Amino-5-(2-fluoro-4-trifluoromethyl-phenyl)-pyridin-3-yl]-phenol] | – |
| 215.3 to 216.2 | COc1ccc(-c2cnnc(-c3ccc(C(F)(F)F)cc3F)c2N)cc1 [Compound 19, 3-(2-Fluoro-4-trifluoromethyl-phenyl)-5-(4-methoxy-phenyl)-pyridazin-4-ylamine] | – |
| 141.3 to 142.1 | COc1ccc(-c2ncnc(-c3ccc(Cl)cc3Cl)c2N)cc1 [Compound 1, 4-(2,4-Dichloro-phenyl)-6-(4-methoxy-phenyl)-pyrimidin-5-ylamine] | – |
| 175.4 to 176.9 | Cc1nc(-c2ccc(O)cc2)c(N)c(-c2ccc(C(F)(F)F)cc2F)n1 [Compound 16, 4-[5-Amino-6-(2-fluoro-4-trifluoromethyl-phenyl)-2-methyl-pyrimidin-4-yl]-phenol] | – |
| 103 to 106 | Nc1c(-c2ccc3[nH]ccc3c2)cncc1-c1ccc(C(F)(F)F)cc1F [Compound 23, 3-(2-Fluoro-4-trifluoromethyl-phenyl)-5-(1H-indol-5-yl)-pyridin-4-ylamine] | – |
| 174.8 to 176.1 | Nc1c(-c2ccc(S(N)(=O)=O)cc2)ncnc1-c1ccc(C(F)(F)F)cc1F [Compound 11, 4-[5-Amino-6-(2-fluoro-4-trifluoromethyl-phenyl)-pyrimidin-4-yl]-benzenesulfonamide] | – |
| 97.3 to 98.2 | Nc1c(-c2ccc(O)cc2)ncnc1-c1ccc(Cl)cc1Cl [Compound 2, 4-[5-Amino-6-(2,4-dichloro-phenyl)-pyrimidin-4-yl]-phenol] | effect on acetylcholine-induced current amplitude [1]: robust increase; maximal modulation of the acetylcholine response (Imax) [1]: 299%; EC50 [1]: 1200 nM |
| 226.3 to 227.5 | Nc1nc(-c2ccc(O)cc2)c(N)c(-c2ccc(C(F)(F)F)cc2F)n1 [Compound 18, 4-[2,5-Diamino-6-(2-fluoro-4-trifluoromethyl-phenyl)-pyrimidin-4-yl]-phenol] | – |
